# Source: patent US5602140A, “Purine derivatives and suppressants for inflammatory diseases” (Japan Energy Corporation, priority 1994, dated 1997)
# Structures can show the parent of a compound that is named as a salt.
# Assays:
# [1] = test system: platelet aggregation induced by PAF; test: Anti-PAF activity: inhibition of platelet aggregation induced by PAF in platelet rich plasma; assay type: cell-based, rabbit; conditions: Oryctolagus cuniculus, PAF 10 nM, test compound concentration 30 μM, read-out: Inhibitory rate
# Procedure: Anti-PAF activity of purine derivatives of the present invention was evaluated in the inhibition of platelet aggregation induced by PAF (platelet activation factor).
# In the present evaluation, blood was drawn from rabbit and 9 volumes of the blood was added with 1 volume of 3.8% sodium citrate solution, centrifuged at 2,000 rpm for 3 min. to give platelet rich plasma (PRP). In a platelet aggregation determination apparatus, 200 μl of the PRP solution and 25 μl of a solution prepared from a predetermined amount of the test compound were mixed and incubated for 2 min. The incubated mixture was added with 25 μl of a solution containing a predetermined amount of PAF to cause platelet aggregation induced by PAF in the test solution. A concentration of PAF was 10 nM in the test solution. The inhibitory rate against platelet aggregation induced by PAF was calculated from the changes of transmission accompanied by the platelet aggregation.
# Various concentrations of the test compounds in the test solution were selected to investigate the relationship between the concentration and the inhibitory rate for the evaluation of inhibitory rate of platelet aggregation induced by PAF. […] The inhibitory rate for the positive control compound, CV-3988 (rac-3-(N-n-octadecylcarbamoyl)-2-methoxypropyl-2-thiazolium ethyl phosphate) is also shown in Table 4.
# [2] = test system: platelet aggregation induced by PAF; conditions: Life Science, 32, 1975-1982 (1983); cited from earlier work
# [3] = molecular target: TXA2 synthesis (crude TXA2 synthetase); test: Inhibition of TXA2 synthesis (crude TXA2 synthetase, labeled arachidonic acid, RIA); assay type: biochemical, human; conditions: for IC50: TXA2 formation, 37° C., 10 min
# Procedure: Inhibitory effect against TXA2 synthesis was evaluated by the method shown below determining the formation of TXA2 as an arachidonic acid metabolite in the presence of purine derivatives of the present invention.
# TXA2 (thromboxane A2) is reported to be synthesized by TXA2 synthetase in arachidonic acid cascade via a cyclic peroxide (PGH2) formed by cyclooxygenase system. Crude TXA2 synthetase was prepared by the following method in the present invention. Blood drawn from healthy volunteer was centrifuged at 200 G for 15 min. and the resulting supernatant was further centrifuged at 2,000 G for 10 min. to give precipitates. The precipitates were homogenized in 0.01M phosphate buffer and centrifuged at 1,000 G for 10 min. to give a supernatant. The resultant supernatant was used as a crude TXA2 synthetase in the following processes. […] The reaction solution was incubated at 37° C. for 10 min. and TXA2 formed in the reaction mixture was determined by RIA method using a commercially available kit (Amersham Co., Ltd., RIA kit). The inhibitory rate was calculated from the difference between the determined amount of formed TXA2 and that carried out in the absence of the test compound. When the difference of formed amount of TXA2 was 0 (zero), then the inhibitory rate was made 0% and when the formation of TXA2 was equal to that of solvent control without TXA2 synthetase, then the inhibitory rate was made 100%.
# The inhibitory rate was estimated for various concentrations of said test compounds and the concentration of 50%-inhibition (IC50) was regressively calculated. The inhibitory effect against TXA2 formation was evaluated using IC50.
# [4] = Scavenging of active oxygen / inhibitory effect against lipid peroxidation (oxidation of linolenic acid to conjugated diene by hydroxy radical, Fenton reaction); assay type: biochemical; conditions: linolenic acid 1.0 mM, absorbance at 234 nm
# Procedure: The inhibitory effect against oxidation of linolenic acid to conjugated diene due to hydroxy radical (. OH) formed by Fenton reaction was determined according to the method of Kharasch et al. (see J. Biol. Chem., 2.60, 10,645 (1985)). A predetermined concentration of FeCl2 solution was added to a mixture of water and DMSO containing predetermined amount of linolenic acid, NaCl, H2 O2, Lubrol and the rest compound to start the reaction. […] Then, the changes of absorbance at 234 nm due to the formation of conjugated diene in the reaction solutions were determined periodically. The inhibitory rate (%) was estimated from the differences between the test solutions and corresponding solutions without the test compound. When the difference of said reaction rate was 0 (zero), then the inhibitory rate was made 0%, and when the reaction rate was 0 (zero), then the inhibitory rate was made 100%.
# The inhibitory rate was estimated for various concentrations of said test compounds and the 50%-inhibitory concentration (IC50) was regressively calculated. The preventive effect against lipid peroxidation was evaluated using IC50.
# [5] = test system: endotoxin induced death; test: Activity for the endotoxin (LPS) induced death in mice; assay type: in vivo, male ICR mice; conditions: for Survival rate: oral twice (30 min before and 8 hrs after LPS 15 mg/kg i.p.), within 4 days, control 50%
# Procedure: (Activity for the endotoxin induced death) Activity of purine derivatives of the present invention for endothelial cell damage by endotoxin was evaluated by the following method.
# In the present method of evaluation, endotoxin caused endothelial cell damage was induced by intraperitoneal administration of LPS (E. coli 055:B5) to male ICR mice. The body weight of test mice was determined beforehand and a dose of 15 mg/kg (body weight) of LPS was predetermined. After administration of LPS, the difference between the number of dead mice induced by endotoxin within 4 days and the total number of mice was divided by the total number of mice to give the survival rate. The dose per body weight of test compound was predetermined and orally administered at 30 min. before induction (LPS administration) and at 8 hrs. after the induction, twice in total. The test compounds were suspended in 0.5% CMC--Na aqueous solution.
# Various doses of the test compounds per body weight were selected to investigate the relationship between the dose and survival rate for the evaluation of inhibitory effect against endotoxin induced death. […] While, control group was given the same dose of 0.5% CMC--Na aqueous solution only. […] That is, the inhibitory effect of the compound of the present invention against endotoxin induced death was clearly observed.
# [6] = test system: nephrotoxin-induced nephritis; test: Effect on nephrotoxin-induced nephritis (anti-GBM serum) in rats; assay type: in vivo, male SD rats; conditions: for Serum parameter BUN / Serum parameter Total cholesterol / Serum parameter triglyceride / Urinary protein One day before induction / Urinary protein Day 5 after induction / Urinary protein Day 3 after induction: oral once daily, means ± S.E.; for Serum parameter BUN: control 27.6 ± 0.9; for Serum parameter Total cholesterol: control 75 ± 3; for Serum parameter triglyceride: control 161 ± 25; for Urinary protein One day before induction: control 12.2 ± 1.1; for Urinary protein Day 5 after induction: control 72.1 ± 25.7; for Urinary protein Day 3 after induction: control 74.1 ± 25.6
# Procedure: Inhibitory effect of purine derivatives of the present invention against nephrotoxin-induced nephritis was evaluated by the following method.
# In the present method of evaluation, nephrotoxin-induced nephritis was induced by administration of anti-GBM (glomerular basement membrane) serum to 9-week old male SD rats. The anti-GBM serum was prepared according to a known method (see Kidney and Dialysis (Jin to Toseki) 31, Special Issue, p. 202-206 (1991), Pub. by Tokyo Igakusha Ltd., Tokyo, Japan). Anti-GBM serum was intravenously administered at an induction dose of 0.15 ml/300 g (body weight). The predetermined dose per body weight of the test compound was suspended in 0.5% CMC--Na aqueous solution and orally administered once daily for consecutive 7 days starting from one day before induction (administration of anti-GBM serum). While, control group was given the same dose of 0.5% CMC--Na aqueous solution only. During the administration period of the test compound, urinary protein was measured every 24 hrs. Seven days after the induction, blood was drawn to prepare serum sample by a conventional method, and BUN, total cholesterol and triglyceride were measured.
# Various doses of the test compounds per body weight were selected to investigate the relationship between the dose and urinary protein for the evaluation of inhibitory effect against nephrotoxin-induced nephritis.
# [7] = test system: TXA2 synthesis (crude TXA2 synthetase); conditions: J. Med. Chem., 24, 1139-1149 (1981); cited from earlier work
# [8] = dose 30 mg/kg, day 7 after induction
# [9] = dose 100 mg/kg, day 7 after induction, *p < 0.05
SMILES,inhibition at 30 µM [1],IC50 [3],IC50 [4],other results
"CCCCCCCCCCCCCCCCCCNC(=O)OCC(COP(=O)([O-])OCC[n+]1ccsc1)OC (racemic) [CV-3988, rac-3-(N-n-octadecylcarbamoyl)-2-methoxypropyl-2-thiazolium ethyl phosphate, reference compound]",78%,,,"anti-PAF activity (literature, in words) [2]: high anti-PAF activity"
"COc1nc(-c2cc(C(C)(C)C)c(O)c(C(C)(C)C)c2)nc2nc[nH]c12 [Example 1, 2-(3,5-di-tert-butyl-4-hydroxyphenyl)-6-methoxypurine]",46%,0.963 µM,3.5 µM,
"CCCOc1nc(-c2cc(C(C)(C)C)c(O)c(C(C)(C)C)c2)nc2nc[nH]c12 [Example 2, 2-(3,5-di-tert-butyl-4-hydroxyphenyl)-6-n-propoxypurine]",57%,0.157 µM,3.4 µM,"inhibitory effect against formation of TXA2 (in words) [3]: remarkable inhibitory effect against formation of TXA2; Survival rate ([5]; dose 100 mg/kg): 68%; Survival rate ([5]; dose 300 mg/kg): 75%; effect on survival / endotoxin induced death (in words) ([5]; oral, 100 and 300 mg/kg): increase in survival rate with the increase of dose was clearly observed; Serum parameter BUN [6, 8]: 26.9 ± 0.8 mg/dL; Serum parameter Total cholesterol [6, 8]: 72 ± 6 mg/dL; Serum parameter triglyceride [6, 8]: 125 ± 20 mg/dL; Urinary protein One day before induction ([6]; dose 30 mg/kg): 10.5 ± 0.8 mg/day; Urinary protein Day 5 after induction ([6]; dose 30 mg/kg): 52.8 ± 16.7 mg/day; Urinary protein Day 3 after induction ([6]; dose 30 mg/kg): 49.0 ± 16.7 mg/day; Serum parameter triglyceride ([6]; dose 100 mg/kg, day 7 after induction, **p < 0.01): 60 ± 4 mg/dL; Serum parameter BUN [6, 9]: 23.6 ± 1.6 mg/dL; Serum parameter Total cholesterol [6, 9]: 66 ± 2 mg/dL; Urinary protein Day 5 after induction ([6]; dose 100 mg/kg, *p < 0.05): 14.3 ± 1.0 mg/day; Urinary protein Day 3 after induction ([6]; dose 100 mg/kg, *p < 0.05): 14.5 ± 1.7 mg/day; Urinary protein One day before induction ([6]; dose 100 mg/kg): 12.2 ± 2.5 mg/day; inhibitory effect against increase of urinary protein (in words) ([6]; oral, 30 and 100 mg/kg): dose dependent inhibitory effect against increase of urinary protein; concentrations of serum BUN, total cholesterol and triglyceride (in words) ([6]; oral, 30 and 100 mg/kg, day 7 after induction): dose dependent decrease"
"CCCCOc1nc(-c2cc(C(C)(C)C)c(O)c(C(C)(C)C)c2)nc2nc[nH]c12 [Example 3, 6-n-butoxy-2-(3,5-di-tert-butyl-4-hydroxyphenyl)purine]",78%,0.174 µM,3.5 µM,inhibitory effect against formation of TXA2 (in words) [3]: remarkable inhibitory effect against formation of TXA2
"CCCCCCOc1nc(-c2cc(C(C)(C)C)c(O)c(C(C)(C)C)c2)nc2nc[nH]c12 [Example 4, 2-(3,5-di-tert-butyl-4-hydroxyphenyl)-6-n-hexyloxypurine]",61%,0.942 µM,3.7 µM,
"CCCCCCCCOc1nc(-c2cc(C(C)(C)C)c(O)c(C(C)(C)C)c2)nc2nc[nH]c12 [Example 5, 2-(3,5-di-tert-butyl-4-hydroxyphenyl)-6-n-octyloxypurine]",15%,,5.4 µM,
"CC(C)(C)c1cc(-c2nc(OCCc3ccccc3)c3[nH]cnc3n2)cc(C(C)(C)C)c1O [Example 6, 2-(3,5-di-tert-butyl-4-hydroxyphenyl)-6-phenethyloxypurine]",35%,0.681 µM,3.5 µM,
"CC(C)(C)c1cc(-c2nc(O)c3[nH]cnc3n2)cc(C(C)(C)C)c1O [Example 7, 2-(3,5-di-tert-butyl-4-hydroxyphenyl)-6-hydroxypurine]",5%,,3.4 µM,
"CC(C)(C)c1cc(-c2nc(OCCCC(=O)O)c3[nH]cnc3n2)cc(C(C)(C)C)c1O [Example 8, 6-(3-carboxy-n-propoxy)-2-(3,5-di-tert-butyl-4-hydroxyphenyl)purine]",5%,,4 µM,
"CC(C)(C)c1cc(-c2nc(OCCCCCC(=O)O)c3[nH]cnc3n2)cc(C(C)(C)C)c1O [Example 9, 6-(5-carboxy-n-pentyloxy)-2-(3,5-di-tert-butyl-4-hydroxyphenyl)purine]",2%,,3.6 µM,
"CC(C)(C)c1cc(-c2nc(OCCCCCCCC(=O)O)c3[nH]cnc3n2)cc(C(C)(C)C)c1O [Example 10, 6-(7-carboxy-n-heptyloxy)-2-(3,5-di-tert-butyl-4-hydroxyphenyl)purine]",4%,,3.7 µM,
"CC(C)(C)c1cc(-c2nc(OCc3ccc(C(=O)O)cc3)c3[nH]cnc3n2)cc(C(C)(C)C)c1O [Example 11, 6-(4-carboxybenzyloxy)-2-(3,5-di-tert-butyl-4-hydroxyphenyl)purine]",53%,,3.9 µM,
"O=C(O)/C=C/c1ccc(Cn2ccnc2)cc1 [Ozagrel HCl, reference compound]",,0.017 µM,,"inhibitory effect against TXA2 synthesis (literature, in words) [7]: very high inhibitory effect against TXA2 synthesis"
